Measured values: PubChem BioAssay AID743034 (The Scripps Research Institute Molecular Screening Center, 2013)
Active and inactive are the calls of the source.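 The calls were made as follows: active = half-life above 60 minutes with both human and mouse liver microsomes; inactive = half-life below 60 minutes in both species.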

Columns and labels:
Pooled human microsomes = assay: liver microsomal half-life of V1a-R antagonists, late-stage follow-up, ADME assay for V1a-R antagonist project, biochemical, LC-MS/MS, human and mouse microsomes, powder samples (AID 743034); conditions: at 1 µM, active compounds read high
Pooled mouse microsomes = assay: as above; conditions: at 1 µM, active compounds read high

SMILES: O=C(C1CCN(c2ccc(Cl)cn2)CC1)N(CC1CC1)c1ccc(Cl)cc1
- half-life (Pooled human microsomes): 23.8 min (inactive)
- half-life (Pooled mouse microsomes): 7.8 min (inactive)
